Laboratory results from US20030068275A1, “Coordination complexes for detecting analytes, and methods of making and using the same” (priority 2001, published 2003).

Test: Detection of nitric oxide with the [Co2(O2CAr^Tol)4(dansylpiperazine)2] fluorescent sensor
Details: for peak emission intensity wavelength: CH2Cl2, excited at 350 nm
Experimental: Detection of Nitric Oxide with the [Co2(O2CAr^Tol)4(dansylpiperazine)2Fluorescent Sensor. It is believed that in solution [Co2(O2CAr^Tol)4(dansylpiperazine)2] is in equilibrium between two species: the [Co2(μ-O2CAr^Tol)4(dansylpiperazine)2] (paddle-wheel) isomer and the [Co2(μ-O2CAr^Tol)2(O2CAr^Tol)2(dansylpiperazine)2] (windmill) isomer. […] The ability of the [Co2(O2CAr^Tol)4(dansylpiperazine)2] system to act as a nitric oxide sensor was tested. […] The exact reaction that occurs in this experiment has not yet been determined.
The fluorescence response of [Co2(O2CAr^Tol)4(dansylpiperazine)2] after exposure to excess NO in CH2Cl2 was measured spectroscopically. Solutions were excited at 350 nm and the emission spectrum recorded. The peak emission intensity is at 503 nm before exposure NO, but shifts to 513 nm after exposure to NO. Emission spectra, shown in FIG. 5, were recorded at 0, 1, 5, 10, 20, 30, 40, 50, and 60 minutes post exposure to NO. A fluorescence increase of 9.6-fold was observed after 60 minutes.

[Co2(μ-O2CAr^Tol)4(dansylpiperazine)2] [[Co2(O2CAr^Tol)4(dansylpiperazine)2]]
fluorescence increase (CH2Cl2, excess NO, excited at 350 nm, after 60 minutes): 9.6 fold | peak emission intensity wavelength (after exposure to excess NO): 513 nm | peak emission intensity wavelength (before exposure to NO): 503 nm | fluorescence in the absence of nitric oxide (solution in dichloromethane, before NO (FIG. 4b, left)): little to no fluorescence | fluorescence change after exposure to nitric oxide (solution in dichloromethane, excess NO (FIG. 4b, right)): increase in fluorescence
